The values that follow come from ChEMBL document CHEMBL1782025, “Archazolid A-15-O-β-D-glucopyranoside and iso-archazolid B: potent V-ATPase inhibitory polyketides from the myxobacteria Cystobacter violaceus and Archangium gephyra” (J Nat Prod, 2011).

One assay concerns L929. The assay is described as follows: Antiproliferative activity against mouse L929 cells assessed as growth inhibition after 5 days by MTT assay. The class given is functional. Particulars: L929, 120 h.
Assay [1] deals with V-type proton ATPase subunit B (Manduca sexta, UniProt P31401). Description: Inhibition of Manduca sexta V-ATPase V1/Vo holoenzyme activity assessed as inorganic phosphate production pretreated for 5 mins.
V-type proton ATPase subunit B, sequence (P31401 whole entry): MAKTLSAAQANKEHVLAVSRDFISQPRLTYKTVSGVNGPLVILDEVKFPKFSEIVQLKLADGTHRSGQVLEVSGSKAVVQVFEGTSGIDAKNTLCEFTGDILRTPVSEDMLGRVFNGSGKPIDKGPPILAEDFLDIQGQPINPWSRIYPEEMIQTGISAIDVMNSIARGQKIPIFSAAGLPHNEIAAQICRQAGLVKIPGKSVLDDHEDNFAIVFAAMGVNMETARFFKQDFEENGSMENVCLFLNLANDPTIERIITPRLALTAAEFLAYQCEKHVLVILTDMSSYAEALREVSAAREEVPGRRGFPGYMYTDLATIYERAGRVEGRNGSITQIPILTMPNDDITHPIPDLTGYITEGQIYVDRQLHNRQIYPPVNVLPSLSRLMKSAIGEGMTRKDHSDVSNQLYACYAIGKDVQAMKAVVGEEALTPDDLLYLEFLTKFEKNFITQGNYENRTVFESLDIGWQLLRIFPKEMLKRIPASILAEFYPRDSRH
In a further assay the test system is U-937. Description: Antiproliferative activity against human U937 cells after 5 days by MTT assay. The class given is functional. Particulars: U-937, 120 h. Background: Formazan colour is commonly taken as a measure of viable cells.
The next assay deals with MCF7. Description: Antiproliferative activity against human MCF7 cells after 5 days by MTT assay. The settings on record: MCF7, 120 h. It counts as functional.
Assay [2] can be described thus: Antiproliferative activity against human KB-3-1 cells after 5 days by MTT assay. The class given is functional. Particulars: KB 3-1, 120 h.
The next assay has as its system SK-OV-3. Description: Antiproliferative activity against human SKOV3 cells after 5 days by MTT assay. The class given is functional. Particulars: SK-OV-3, 120 h.
The test system of a further assay is PC-3. The assay is described as follows: Antiproliferative activity against human PC3 cells after 5 days by MTT assay. The settings on record: PC-3, 120 h. It counts as functional.
A further assay concerns A-431. Description: Antiproliferative activity against human A431 cells after 5 days by MTT assay. It counts as functional. Particulars: A-431, 120 h.

One may read the GI50 as the concentration that inhibits growth by half. In the case of `CNC(=O)O[C@@H](CC(C)C)c1nc([C@H]2OC(=O)/C(C)=C/C/C(C)=C/[C@@H](O)[C@@H](C)\C=C(C)/C=C(C)\C=C\[C@@H](O)[C@H](C)[C@H](OC)/C(C)=C/C=C/[C@@H]2C)cs1` [ARCHAZOLID A], the GI50 in the assay with L929 amounted to 0.81 nM. For the same molecule, the IC50 in assay [1] is on record as 0.6 nmol/mg.

On to `CNC(=O)O[C@@H](CC(C)C)c1nc([C@H]2OC(=O)/C(C)=C/C/C(C)=C/[C@@H](O[C@@H]3O[C@H](CO)[C@@H](O)[C@H](O)[C@H]3O)[C@@H](C)\C=C(CO)/C=C(C)\C=C\[C@@H](O)[C@H](C)[C@H](OC)/C(C)=C/C=C/[C@@H]2C)cs1` [ARCHAZOLID D], for which the GI50 in the assay on L929 stood at 330 nM. Moreover, the IC50 in assay [1] is given as 1200 nmol/mg.

With `CNC(=O)O[C@@H](CC(C)C)c1nc([C@H]2OC(=O)/C(C)=C/C/C(C)=C/[C@@H](O)[C@@H](C)\C=C(C)/C=C(C)\C=C\[C@@H](O[C@@H]3O[C@H](CO)[C@@H](O)[C@H](O)[C@H]3O)[C@H](C)[C@H](OC)/C(C)=C/C=C/[C@@H]2C)cs1` [ARCHAZOLID E], in the assay on L929, the GI50 was determined as 510 nM.

Turning to `CNC(=O)O[C@@H](CC(C)C)c1nc([C@H]2OC(=O)/C(C)=C/C/C(C)=C/[C@@H](O[C@@H]3O[C@H](CO)[C@@H](O)[C@H](O)[C@H]3O)[C@@H](C)\C=C(C)/C=C(C)\C=C\[C@@H](O)[C@H](C)[C@H](OC)/C(C)=C/C=C/[C@@H]2C)cs1` [ARCHAZOLID C], the GI50 in the assay with L929 was 1600 nM. In addition, the IC50 in assay [1] worked out at 210 nmol/mg.

As for `CNC(=O)O[C@@H](CC(C)C)c1nc([C@H]2OC(=O)/C=C/C/C(C)=C/[C@@H](O)[C@@H](C)\C=C(C)/C=C(C)\C=C\[C@@H](O)[C@H](C)[C@H](OC)/C(C)=C/C=C/[C@@H]2C)cs1` [ARCHAZOLID B], the concentration for 50% growth inhibition (GI50) with L929 worked out at 1.1 nM. For the same molecule, the IC50 in assay [1] is reported as 0.6 nmol/mg.

Turning to `CNC(=O)O[C@@H](CC(C)C)c1nc([C@H]2OC(=O)C/C=C/C(C)=C/[C@@H](O)[C@@H](C)\C=C(C)/C=C(C)\C=C\[C@@H](O)[C@H](C)[C@H](OC)/C(C)=C/C=C/[C@@H]2C)cs1` [ARCHAZOLID F], the GI50 in the assay with L929 amounted to 0.11 nM; with U-937 it was 0.038 nM; in the assay with MCF7, 0.131 nM; in assay [2], 0.042 nM; with SK-OV-3 it was 0.043 nM; in the assay with PC-3, 0.053 nM. This molecule had a GI50 with A-431 of 0.111 nM. Moreover, the IC50 in assay [1] was 0.7 nmol/mg.
